Experimental data from US20250282770A1, “BIOLUMINESCENT PROBES TO TRACK STEM CELLS IN VIVO” (THE BOARD OF TRUSTEES OF THE UNIVERSITY OF ILLINOIS, priority 2024, published 2025).

What was measured:
rat liver microsomes = test: Stability of AlDeLuc to rat liver microsomes; type: in vitro ADME; conditions: 2 μM; RLM 0.25 to 5.0 ng/mL; NADPH; 37° C.
Description: Investigating the Stability of AlDeLuc to Rat Liver Microsomes. The stability of AlDeLuc (2 μM) in rat liver microsomes (RLM) was measured in a black 96-well plate and was monitored using the IVIS imaging system. To Eppendorf tubes containing potassium phosphate buffer (0.1 M, pH 7.4), RLM (0.25 ng/mL or 5 ng/mL), and AlDeLuc (2 μM) was added NADPH (50 μM in potassium phosphate buffer) and incubated at 37° C. for 15 minutes. In parallel, Eppendorf tubes with potassium phosphate buffer (0.1 M, pH 7.4), ALDH1A1 (0.4 μM), NAD^+ (1 mM), and AlDeLuc (2 μM, activated with acid) were warmed at 37° C. for 15 minutes. The solutions were transported to the laboratory housing the IVIS imaging system (˜10 minutes), transferred to a 96-well plate, and immediately administered ATP-MgSO4 (45 μL, prepared by mixing 17.78 mM ATP-Mg and 35.56 mM MgSO4 in a 1:1 ratio in PBS buffer) and luciferase (5 μL, 1 mg/mL in PBS containing 10% glycerol) to initiate bioluminescence production. Light was collected immediately after mixing, and the total luminescent counts were collected in each condition. The total volume of each well was 200 μL with 0.2% DMSO. All data reported as the mean±standard deviation (n=4).

ALDH1A1 = molecular target: T1, ALDH1A1 (Homo sapiens, UniProt P00352); test: AlDeLuc isoform selectivity assay; type: biochemical; conditions: 2 μM, pre-activated with HCl, 60 min room temperature
T1 construct: inferred from Ni-NTA purification; made in house; host or cells: E. coli BL21(DE3)
T1 sequence (P00352 1-501): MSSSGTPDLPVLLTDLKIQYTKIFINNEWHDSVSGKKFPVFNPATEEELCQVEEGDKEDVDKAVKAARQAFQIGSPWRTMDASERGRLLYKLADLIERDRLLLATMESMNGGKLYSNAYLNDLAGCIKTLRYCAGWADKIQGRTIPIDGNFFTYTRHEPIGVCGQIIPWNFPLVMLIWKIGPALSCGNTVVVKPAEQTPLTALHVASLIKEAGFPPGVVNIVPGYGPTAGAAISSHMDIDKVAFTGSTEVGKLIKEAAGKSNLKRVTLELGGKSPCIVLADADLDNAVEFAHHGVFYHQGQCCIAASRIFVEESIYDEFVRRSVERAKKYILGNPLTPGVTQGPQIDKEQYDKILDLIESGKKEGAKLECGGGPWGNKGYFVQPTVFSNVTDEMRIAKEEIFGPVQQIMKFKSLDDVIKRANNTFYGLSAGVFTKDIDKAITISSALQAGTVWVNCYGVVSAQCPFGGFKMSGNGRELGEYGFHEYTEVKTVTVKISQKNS
Description: (§1) Expression and Purification of ALDH Expression constructs for recombinant human ALDH1A1, ALDH1A2, ALDH1A3, and ALDH2, ALDH3A1, ALDH4A1, and ALDH5A1 were generously provided by Prof. Daria Mochly-Rosen (Stanford, Chemical and Systems Biology). E. coli BL21(DE3) cells with transformed with each of the above constructs. Colonies were selected from an agar plate containing […] ampicillin and grown overnight (37° C., 220 rpm) in LB media containing […] ampicillin. The overnight culture (10 mL) was inoculated into 1000 mL LB supplemented with […] ampicillin. When the O.D. reached ˜0.5, IPTG was added to a final concentration of 1 mM and incubated overnight (30° C., 200 rpm, 18 h). The cells were harvested via centrifugation (4° C., 4,000 rpm, 90 min) and the cell pellets were stored at −80° C. until purification.
(§2) ALDH Isoform Activity Determination. The activity of each isoform of ALDH was confirmed by monitoring the production of NADH at 340 nm when incubated with the most used substrate for that enzyme (i.e., benzaldehyde for ALDH3A1 and propionaldehyde for all other isoforms). Each isoform was diluted with 50 mM triethanolamine (TEA, pH 7.4) to a final concentration of 0.5 μM and placed in a 1 mL quartz cuvette. Prior to measurement, NAD^+ was added to a final concentration of 2.5 mM and the preferred substrate was added to a final concentration of 1 mM. Absorbance spectra was taken from 300 to 500 nm every 30 seconds for 15 minutes. Activity for each enzyme was calculated from the slope of absorbance increase at 340 nm over time.
(§3) AlDeLuc Isoform Selectivity Assay. Activation of AlDeLuc was assessed using the necessary amount of enzyme that gave the activity of 0.5 nmol of substrate turned over/minute. All enzymatic reactions were performed in 50 mM triethanolamine (TEA) buffer (pH 7.4) with 2.5 mM NAD^+. To prepare the probe solution, AlDeLuc was dissolved in DMSO and incubated with 1 M HCl. After an hour, this solution was neutralized with 1 M NaOH, and diluted with PBS. To a clear 24-well plate, TEA buffer, NAD^+, the ALDH isoform, and then AlDeLuc (2 μM) were added sequentially to a final volume of 1 mL. After an hour incubation at room temperature, ATP-MgSO4 (45 μL, prepared by mixing 17.78 mM ATP-Mg and 35.56 mM MgSO4 in a 1:1 ratio in PBS buffer) and luciferase (5 μL, 1 mg/mL in PBS containing 10% glycerol) were added to initiate bioluminescence production. The wells were immediately imaged using the IVIS imaging system in open mode. ROIs were drawn around each well and the signal intensity was quantified using the Living Image Analysis. The signal enhancement was normalized relative to the ALDH2 isoform.

ALDH1A2 = molecular target: T2, ALDH1A2 (Homo sapiens, UniProt O94788); test: AlDeLuc isoform selectivity assay; type: biochemical; conditions: 2 μM, pre-activated with HCl, 60 min room temperature
T2 construct: inferred from Ni-NTA purification; made in house; host or cells: E. coli BL21(DE3)
T2 sequence (O94788 whole entry, canonical isoform): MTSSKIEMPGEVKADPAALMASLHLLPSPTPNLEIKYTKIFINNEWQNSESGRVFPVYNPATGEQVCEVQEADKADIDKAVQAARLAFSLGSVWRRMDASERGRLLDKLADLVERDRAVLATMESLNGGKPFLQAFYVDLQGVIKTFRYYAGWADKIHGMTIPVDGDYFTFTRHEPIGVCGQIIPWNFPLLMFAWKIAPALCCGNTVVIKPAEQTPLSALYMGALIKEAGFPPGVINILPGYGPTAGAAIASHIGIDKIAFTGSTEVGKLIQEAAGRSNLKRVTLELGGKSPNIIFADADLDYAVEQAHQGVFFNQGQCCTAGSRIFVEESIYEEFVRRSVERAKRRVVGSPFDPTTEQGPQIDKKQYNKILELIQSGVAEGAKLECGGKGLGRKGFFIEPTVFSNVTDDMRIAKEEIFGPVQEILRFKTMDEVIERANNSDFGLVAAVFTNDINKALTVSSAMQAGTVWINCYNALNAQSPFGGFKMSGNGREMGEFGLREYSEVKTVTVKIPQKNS
Description: as §1, §2, §3

ALDH1A3 = molecular target: T3, ALDH1A3 (Homo sapiens, UniProt P47895); test: AlDeLuc isoform selectivity assay; type: biochemical; conditions: 2 μM, pre-activated with HCl, 60 min room temperature
T3 construct: inferred from Ni-NTA purification; made in house; host or cells: E. coli BL21(DE3)
T3 sequence (P47895 whole entry, canonical isoform): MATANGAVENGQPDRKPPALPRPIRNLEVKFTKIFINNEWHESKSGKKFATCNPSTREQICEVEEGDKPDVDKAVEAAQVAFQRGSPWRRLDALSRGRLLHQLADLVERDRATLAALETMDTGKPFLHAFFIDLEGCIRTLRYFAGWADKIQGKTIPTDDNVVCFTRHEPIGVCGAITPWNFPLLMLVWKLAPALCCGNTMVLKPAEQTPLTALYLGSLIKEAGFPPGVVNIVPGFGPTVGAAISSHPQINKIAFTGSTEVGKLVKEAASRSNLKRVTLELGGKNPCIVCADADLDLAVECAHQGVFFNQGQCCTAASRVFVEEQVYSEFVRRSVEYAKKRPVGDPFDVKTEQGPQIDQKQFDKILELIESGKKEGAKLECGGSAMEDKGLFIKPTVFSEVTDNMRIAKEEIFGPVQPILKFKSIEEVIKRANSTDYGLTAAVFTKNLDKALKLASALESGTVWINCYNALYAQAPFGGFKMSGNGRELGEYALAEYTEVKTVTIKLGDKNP
Description: as §1, §2, §3

ALDH2 = molecular target: T4, ALDH2 (Homo sapiens, UniProt P05091); test: AlDeLuc isoform selectivity assay; type: biochemical; conditions: 2 μM, pre-activated with HCl, 60 min room temperature
T4 construct: inferred from Ni-NTA purification; made in house; host or cells: E. coli BL21(DE3)
T4 sequence (P05091 18-517): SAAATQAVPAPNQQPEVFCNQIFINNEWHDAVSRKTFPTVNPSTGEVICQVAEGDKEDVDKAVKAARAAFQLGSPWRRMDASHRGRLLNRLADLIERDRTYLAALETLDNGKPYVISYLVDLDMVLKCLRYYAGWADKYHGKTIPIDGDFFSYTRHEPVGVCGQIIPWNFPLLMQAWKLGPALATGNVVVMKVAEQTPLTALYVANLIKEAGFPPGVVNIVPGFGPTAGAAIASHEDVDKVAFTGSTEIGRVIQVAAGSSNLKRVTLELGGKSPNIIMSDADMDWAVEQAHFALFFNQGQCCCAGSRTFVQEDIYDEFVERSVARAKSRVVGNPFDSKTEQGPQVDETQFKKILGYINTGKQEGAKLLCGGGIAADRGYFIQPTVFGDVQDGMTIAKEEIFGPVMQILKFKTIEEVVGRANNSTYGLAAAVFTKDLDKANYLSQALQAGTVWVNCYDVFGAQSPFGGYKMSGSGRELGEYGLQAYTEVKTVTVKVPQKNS
Description: as §1, §2, §3

ALDH3A1 = molecular target: T5, ALDH3A1 (Homo sapiens, UniProt P30838); test: AlDeLuc isoform selectivity assay; type: biochemical; conditions: 2 μM, pre-activated with HCl, 60 min room temperature
T5 construct: inferred from Ni-NTA purification; made in house; host or cells: E. coli BL21(DE3)
T5 sequence (P30838 whole entry, canonical isoform): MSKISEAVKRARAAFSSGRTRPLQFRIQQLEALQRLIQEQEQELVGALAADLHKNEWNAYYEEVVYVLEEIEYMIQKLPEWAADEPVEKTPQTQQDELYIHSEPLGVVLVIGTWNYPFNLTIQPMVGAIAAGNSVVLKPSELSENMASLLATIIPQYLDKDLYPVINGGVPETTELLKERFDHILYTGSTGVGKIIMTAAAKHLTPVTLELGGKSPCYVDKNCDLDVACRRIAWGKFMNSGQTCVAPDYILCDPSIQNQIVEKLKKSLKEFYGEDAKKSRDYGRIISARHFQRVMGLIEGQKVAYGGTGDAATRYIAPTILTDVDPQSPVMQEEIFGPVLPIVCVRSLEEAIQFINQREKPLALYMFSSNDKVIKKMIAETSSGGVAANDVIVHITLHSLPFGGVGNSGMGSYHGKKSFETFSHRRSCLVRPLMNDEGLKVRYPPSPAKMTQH
Description: as §1, §2, §3

ALDH4A1 = molecular target: T6, ALDH4A1 (Homo sapiens, UniProt P30038); test: AlDeLuc isoform selectivity assay; type: biochemical; conditions: 2 μM, pre-activated with HCl, 60 min room temperature
T6 construct: inferred from Ni-NTA purification; made in house; host or cells: E. coli BL21(DE3)
T6 sequence (P30038 25-563): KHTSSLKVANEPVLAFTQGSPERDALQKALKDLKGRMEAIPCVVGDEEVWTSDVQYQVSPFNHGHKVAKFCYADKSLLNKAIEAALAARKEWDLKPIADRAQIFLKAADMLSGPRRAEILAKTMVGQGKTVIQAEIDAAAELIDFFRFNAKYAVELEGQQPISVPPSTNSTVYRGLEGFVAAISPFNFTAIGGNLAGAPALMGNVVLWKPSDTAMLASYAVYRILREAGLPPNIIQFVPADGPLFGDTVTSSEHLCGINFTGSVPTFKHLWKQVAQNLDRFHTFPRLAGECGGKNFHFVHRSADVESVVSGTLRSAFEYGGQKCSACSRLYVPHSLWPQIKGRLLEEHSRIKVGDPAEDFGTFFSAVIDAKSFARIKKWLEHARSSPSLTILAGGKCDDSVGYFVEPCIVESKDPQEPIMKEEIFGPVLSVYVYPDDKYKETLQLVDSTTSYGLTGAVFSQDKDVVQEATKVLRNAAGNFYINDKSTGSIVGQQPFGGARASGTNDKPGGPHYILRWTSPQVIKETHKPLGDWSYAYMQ
Description: as §1, §2, §3

ALDH5A1 = molecular target: T7, ALDH5A1 (Homo sapiens, UniProt P51649); test: AlDeLuc isoform selectivity assay; type: biochemical; conditions: 2 μM, pre-activated with HCl, 60 min room temperature
T7 construct: inferred from Ni-NTA purification; made in house; host or cells: E. coli BL21(DE3)
T7 sequence (P51649 48-535): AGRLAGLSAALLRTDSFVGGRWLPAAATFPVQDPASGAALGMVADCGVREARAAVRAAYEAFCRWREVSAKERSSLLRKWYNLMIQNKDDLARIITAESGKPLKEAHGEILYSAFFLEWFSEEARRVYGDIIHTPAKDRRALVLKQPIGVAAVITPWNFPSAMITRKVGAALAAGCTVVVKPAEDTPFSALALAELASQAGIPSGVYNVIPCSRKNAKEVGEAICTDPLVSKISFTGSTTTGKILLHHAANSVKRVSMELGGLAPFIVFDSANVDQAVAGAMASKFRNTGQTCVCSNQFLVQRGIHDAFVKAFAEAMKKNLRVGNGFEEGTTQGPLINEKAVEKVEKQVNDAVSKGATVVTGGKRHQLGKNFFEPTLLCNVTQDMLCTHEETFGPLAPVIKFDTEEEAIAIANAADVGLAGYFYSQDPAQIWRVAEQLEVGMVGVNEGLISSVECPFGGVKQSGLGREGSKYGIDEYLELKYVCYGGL
Description: as §1, §2, §3

CCN(CC)c1ccc2nc(C3=N[C@@H](C(OC)OC)CS3)sc2c1 [AlDeLuc, (S)-2-(4-(dimethoxymethyl)-4,5-dihydrothiazol-2-yl)-N,N-diethylbenzo[d]thiazol-6-amine]
bioluminescence after incubation with rat liver microsomes (rat liver microsomes): negligible bioluminescence
bioluminescence (ALDH1A1): significant bioluminescence
bioluminescence (ALDH1A2): only treatment with ALDH1A1 and luciferase generated significant bioluminescence
bioluminescence (ALDH1A3): only treatment with ALDH1A1 and luciferase generated significant bioluminescence
bioluminescence (ALDH2): only treatment with ALDH1A1 and luciferase generated significant bioluminescence
bioluminescence (ALDH3A1): only treatment with ALDH1A1 and luciferase generated significant bioluminescence
bioluminescence (ALDH4A1): only treatment with ALDH1A1 and luciferase generated significant bioluminescence
bioluminescence (ALDH5A1): only treatment with ALDH1A1 and luciferase generated significant bioluminescence
